Assay results reported in publication PMC7177638 (International Journal of Molecular Sciences, 2020).

Columns and labels:
[1] = Cyclic voltammetry, cathodic reduction potential in aqueous solution; format: physicochemical; settings: values normalized vs. SCE; phosphate buffer pH 7.4, 5 mM NaCl, 5·10^−4 M complex, scan rate 0.020 V s^−1
Description: The electrochemical characterization of compounds 1–6, performed by using cyclic voltammetry (CV), was carried out with the aim of determining the cathodic reduction potentials in aqueous solution (Ep^c).
Cyclic voltammetry (CV) measurements were carried out with a potentiostat CHI 1230B (CH Instruments, Inc., Austin, TX, USA) in a standard three-electrode electrochemical cell. The working electrode was a glassy carbon (GC) electrode, the reference electrode was a KCl-saturated Ag/AgCl and the counter was a Pt sheet. The GC electrode was carefully polished with alumina powder, then rinsed with distilled water and dried, to obtain a reproducible surface for all the experiments. All the measurements, conducted in triplicate, were carried out in buffered aqueous solutions containing the Pt(IV) compound at a concentration of 5·10^−4 M in 10 mL phosphate buffer (PB, pH = 7.4, I = 0.1) and 5 mM NaCl as supporting electrolyte. A blank solution (without Pt(IV) complex) was also tested. All the peak potentials were measured with a scan rate of 0.020 V s^−1; the initial potential was chosen equal to the open-circuit potential and the scan direction was negative. All the CV plots were acquired after an equilibration time of 2 min in order to make the GC surface reproducible.

[2] = Stability in solution followed by 1H-NMR (solvent-assisted photoreduction); format: physicochemical; settings: DMSO-d6, room temperature, not shielded from light
Description: (5.4–6.5 ppm). Most likely, compound 4 underwent a solvent-assisted reduction process favored by light, as previously observed for similar compounds such as cis,trans,cis-[PtCl2(OH)2(cis-1,4-DACH)] [19, 20]. […] This reduction/solvation could also be observed in other solvents, such as D2O and CD3OD.
As for compound 4, the reduction is probably fostered by the presence of axial chlorido ligand(s).
The ^13C NMR signals are influenced by the asymmetry of the complex with respect to the equatorial plane with two peaks at 125.4 and 125.2 ppm for the vinylic carbons, two signals at 60.2 and 59.3 ppm for the methynic carbons, and two signals at 33.1 and 32.6 ppm for the methylenic carbons (Figure S10).

[3] = test system: HCT-15 human colon carcinoma cells; experiment: MTT cytotoxicity test, 72 h; format: cell-based; settings: HCT-15, MTT
Description: (§1) The in vitro cytotoxic activities of compounds 1–6 were assayed on a panel of human cancer cell lines containing examples of pancreatic (PSN-1), colon (HCT-15 and LoVo), cervical (A431), and ovarian (2008) cancers. Cisplatin and oxaliplatin were used as reference compounds and were tested under the same experimental conditions.
(§2) Human colon (HCT-15 and LoVo) and pancreatic (PSN-1) carcinoma cell lines were obtained from the American Type Culture Collection (ATCC, RocKville, MD). The 2008 human ovarian cancer cells were kindly provided by Prof. G. Marverti (Dept. of Biomedical Science of Modena University, Italy). Human cervical carcinoma (A431) cells were kindly provided by Prof. F. Zunino (Division of Experimental Oncology B, Istituto Nazionale dei Tumori, Milan, Italy). […] Cell lines were maintained in the logarithmic phase at 37 °C in a 5% carbon dioxide atmosphere using RPMI-1640 or F-12 culture medium (Euroclone) containing 10% fetal calf serum (Euroclone, Milan, Italy), antibiotics (50 units per mL penicillin and 50 μg mL^−1 streptomycin), and 2 mM L-glutamine.
(§3) The growth inhibitory effect toward the tumor cell lines was evaluated by the MTT test. Briefly, 3-8·10^3 cells/well, depending upon the growth characteristics of the cell lines, were seeded in 96-well microplates in growth medium (100 µL) and then incubated at 37 °C in a 5% carbon dioxide atmosphere. After 24 h, the medium was removed and replaced with a fresh one containing the compound to be tested at the appropriate concentration. Triplicate cultures were established for each treatment. After 72 h, each well was treated with 10 µL of a 5 mg·mL^−1 MTT (3-(4,5-dimethylthiazol-2-yl)-2,5-diphenyltetrazolium bromide) saline solution and, after 5 h of incubation, 100 µL of a sodium dodecylsulfate (SDS) solution in HCl 0.01 M were added. Following an overnight incubation, the inhibition of cell growth induced by the tested complexes was evaluated by measuring the absorbance of each well at 570 nm using a Bio-Rad 680 microplate reader (Bio-Rad Laboratories S.r.l., Segrate (MI), Italy).

[4] = test system: LoVo human colon carcinoma cells; experiment: MTT cytotoxicity test, 72 h; format: cell-based
Description: as §1, §2, §3

[5] = test system: A431 human cervical carcinoma cells; experiment: MTT cytotoxicity test, 72 h; format: cell-based
Description: as §1, §2, §3

[6] = test system: 2008 human ovarian cancer cells; experiment: MTT cytotoxicity test, 72 h; format: cell-based; settings: 2008, MTT
Description: as §1, §2, §3

[7] = test system: PSN-1 human pancreatic carcinoma cells; experiment: MTT cytotoxicity test, 72 h; format: cell-based; settings: PSN-1, MTT
Description: as §1, §2, §3

LoVo-OXP cancer cells = experiment: MTT cytotoxicity test, 72 h, oxaliplatin-resistant cells; format: cell-based, human; settings: LoVo OXP
Description: as §2, §3

[8] = test system: human A431 cancer cell spheroids; experiment: Cytotoxicity towards 3D spheroids, acid phosphatase (APH) assay; format: cell-based; settings: A431 3D spheroids, 72 h, APH assay
Description: The remarkable cell-killing effect observed against human A431 squamous cervical carcinoma two-dimensional (2D) cultured cells prompted us to evaluate the in vitro antitumor activity of compounds 1–6 on three-dimensional (3D) cell cultures. As opposed to 2D monolayer cultures, cells growing in 3D culture systems form spheroids that comprise cells in various stages. […] Such cellular heterogeneity resembles that of in vivo tumors, making 3D cell cultures more predictive than conventional 2D monolayer cultures in screening antitumor drugs.
Spheroid cultures were obtained by seeding 2.5 × 10^3 A431 cancer cells/well in a round bottom non-treated tissue culture 96 well-plate (Greiner Bio-one, Kremsmünster, Austria) in phenol red free RPMI-1640 medium (Sigma Chemical Co.) containing 10% fetal calf serum (FCS) and supplemented with 20% methyl cellulose stock solution.
An APH modified assay was used for determining cell viability in 3D spheroids, as previously described. IC50 values were calculated with a four parameter logistic (4-PL) model.

[9] = XPS Pt4f surface reduction of Pt(IV) to Pt(II) under X-ray irradiation; format: physicochemical; settings: for % of Reduction: after 30 min irradiation, calculated from Pt(IV) abundances
Description: The Pt(IV) complexes were also characterized by X-ray photoelectron spectroscopy (XPS) in order to obtain information on the surface chemical composition and on the platinum speciation. Despite the surface sensitivity of the technique (topmost 5–8 nm), the analysis on homogeneous samples provides useful information on the chemical environment of all detected elements. […] Two doublets were found: one is attributed to Pt(II) (BE Pt4f7/2 = 72.9 ± 0.2 eV and BE Pt4f5/2 = 76.2 ± 0.2 eV), while the second doublet is attributed to Pt(IV) (BE Pt4f7/2 = 75.6 ± 0.2 eV and BE Pt4f5/2 = 79.0 ± 0.2 eV).
The Pt(IV)/Pt(II) relative abundance varies from case to case; moreover, if the X-ray degradation is monitored after 30 min exposure to the X-ray beam, an increase of the Pt(II) relative abundance is observed (Figure 8b).
X-ray Photoelectron Spectroscopy (XPS) analyses were run on a PHI 5000 Versa Probe II Scanning XPS Microprobe spectrometer (ULVAC PHI Inc., Kanagawa, Japan). Measurements were carried out using a monochromatic Al Kα source (X-ray spot 200 μm) at a power of 50.3 W. Wide scan and detailed spectra (Pt4f, C1s, Cl2p, N1s, O1s) were acquired in Constant Analyzer Energy (CAE) mode with a pass energy of 117.40 and 29.35 eV, respectively. An electron gun was used for charge compensation (1.0 V, 20.0 μA). Due to the X-ray sensitivity of Pt(IV) complexes, the Pt4f spectral region was acquired first. X-ray degradation kinetics experiments were performed analyzing the same sample area after 30 min. Data processing was performed by using the MultiPak software v. 9.8.0.19.

[10] = logPo/w by shake-flask method with ICP-MS Pt determination; format: physicochemical; settings: n-octanol / 0.15 M KCl in water
[11] = test system: panel of human cancer cell lines (PSN-1, HCT-15, LoVo, A431, 2008); experiment: MTT cytotoxicity, average over the panel of human cancer cell lines; format: cell-based; settings: mean over the cell line panel, 72 h
Description: as §1
[17, 30] Thus, the pharmacological activity decreases in the order 3 >> 1 ≈ 2 ≈ 4 > 5 > 6.
as §3

[12] = test system: cisplatin-resistant ovarian C13* cell line; design: method as in PMID 22788918; settings: cited from earlier work
[13] = test system: oxaliplatin-resistant colon LoVo-OXP cell line; design: method as in PMID 22788918; settings: cited from earlier work
[14] = test system: panel of human tumor cell lines (A431, 2008, HCT-15, LoVo, LoVo OXP, LoVo MDR); settings: cited from earlier work
LoVo OXP cells = settings: cited from earlier work

Compound | Cathodic reduction potential Ep^c [1] | stability in solution (reduction to Pt(II) / solvation) [2] | IC50 [3] | IC50 [4] | IC50 [5] | IC50 [6] | IC50 [7] | IC50 (LoVo-OXP cancer cells) | IC50 [8] | % of Reduction [9] | % Relative Abundance Pt(IV)/(II), After 30 min Irradiation ([9]; after 30 min X-ray irradiation) | % Relative Abundance Pt(IV)/(II), As Irradiated ([9]; onset of the experiment) | logPo/w [10] | IC50 [11] | activity against cell line [12] | activity against cell line [13] | ability to overcome oxaliplatin resistance (LoVo vs LoVo-OXP) [14] | cytotoxic activity compared with cisplatin and oxaliplatin ([14]; panel of human tumor cell lines) | lipid droplets formation (LoVo OXP cells)
NC1CC=CCC1N.O=C1[O][Pt]([Cl])([Cl])[O]C1=O (racemic) [Complex 4, cis,trans,cis-[Pt(OXA)Cl2(DACHEX)]] | −0.72 V | quite unstable | 1170 ± 200 nM | 390 ± 30 nM | 430 ± 200 nM | 420 ± 100 nM | 3080 ± 1100 nM | > 2000 nM | 9900 ± 2600 nM | 67% | – | – | – | – | – | – | – | – | –
cis,trans,cis-[Pt(OXA)(OH)2(DACHEX)] [Complex 1] | −1.05 V | – | 440 ± 100 nM | 840 ± 300 nM | 490 ± 200 nM | 720 ± 100 nM | 3150 ± 800 nM | > 2000 nM | 5800 ± 800 nM | 44% | 48/52 | 86/14 | −3.05 | – | – | – | – | – | –
[NH2][Pt]([NH2])([Cl])[Cl] [CDDP, cisplatin, reference compound] | – | – | 15300 ± 2600 nM | 7600 ± 1500 nM | 1430 ± 400 nM | 2230 ± 100 nM | 16600 ± 4200 nM | – | 58300 ± 900 nM | – | – | – | – | 8600 nM | – | – | – | – | –
NC1CCC(N)CC1.[Cl][Pt+2][Cl] (stereo not drawn) [Kiteplatin, [PtCl2(cis-1,4-DACH)]] | – | – | – | – | – | – | – | – | – | – | – | – | – | – | active | active | – | – | –
NC1CC=CCC1N.O=C1[O][Pt][O]C1=O (racemic) [[Pt(OXA)(DACHEX)]] | – | – | – | – | – | – | – | – | – | – | – | – | – | – | – | – | equally active | better than that of cisplatin and comparable to or better than that of oxaliplatin | induced lipid droplets formation
O=C1[O][Pt]2([NH][C@@H]3CCCC[C@H]3[NH]2)[O]C1=O [OXP, oxaliplatin, reference compound] | – | – | 1150 ± 400 nM | 1100 ± 600 nM | 3800 ± 1300 nM | 1530 ± 900 nM | 7900 ± 3500 nM | 14300 ± 2100 nM | 36300 ± 1200 nM | – | – | – | – | 3100 nM | – | – | – | – | –
CC(=O)[O][Pt]1([O]C(C)=O)[O]C(=O)C(=O)[O]1.NC1CC=CCC1N [Complex 2, cis,trans,cis-[Pt(OXA)(AcO)2(DACHEX)]] | −1.03 V | – | 1270 ± 500 nM | 590 ± 100 nM | 550 ± 100 nM | 330 ± 500 nM | 2850 ± 700 nM | > 2000 nM | 3400 ± 900 nM | 65% | – | – | – | – | – | – | – | – | –
